According to patent US10231453B2, “5-substituted imidazole derivatives” (BAYER CROPSCIENCE AKTIENGESELLSCHAFT, priority 2015, dated 2019):
Where two headings read alike, the source gives them in different places.

Columns and labels:
Pyrenophora teres = experiment: In vivo preventive test on Pyrenophora teres (net blotch on barley), Examples D, Q2 and R4; conditions: Pyrenophora teres, 336 h, 500 ppm of active ingredient, preventive spray, evaluated 14 days after inoculation, read-out: efficacy
[1] = Measurement of LogP values by HPLC on reversed phase columns (EEC directive 79/831 Annex V.A8); format: physicochemical; conditions: method [a]: LC-UV, acidic range, 0.1% formic acid in water and acetonitrile as eluent; Table 1
Description: Measurement of Log P values was performed as outlined above.

Sphaerotheca fuliginea = experiment: In vivo preventive test on Sphaerotheca fuliginea (powdery mildew on cucurbits), Examples F and R6; conditions: Podosphaera fuliginea, 360 h; 500 ppm of active ingredient; gherkin, preventive spray, evaluated 15 days after inoculation; read-out: efficacy
Uromyces appendiculatus = experiment: In vivo preventive test on Uromyces appendiculatus (bean rust), Examples G and R7; conditions: 264 h, 500 ppm of active ingredient, bean, preventive spray, evaluated 11 days after inoculation, read-out: efficacy
Botrytis cinerea = experiment: In vivo preventive test on Botrytis cinerea (grey mould) on gherkin, Examples B, Q1 and R2; conditions: Botrytis cinerea, 500 ppm of active ingredient, preventive spray, evaluated 4 to 5 days after inoculation, read-out: efficacy
Puccinia recondita = experiment: In vivo preventive test on Puccinia recondita (brown rust on wheat), Examples C and R3; conditions: Puccinia recondita, 264 h; 500 ppm of active ingredient; wheat, preventive spray, evaluated 11 days after inoculation; read-out: efficacy
Septoria tritici = experiment: In vivo preventive test on Septoria tritici (leaf spot on wheat), Examples E, Q3 and R5; conditions: Zymoseptoria tritici, 576 h, 500 ppm of active ingredient; wheat, preventive spray, evaluated 24 days after inoculation; read-out: efficacy
Alternaria brassicae = experiment: In vivo preventive test on Alternaria brassicae (leaf spot on radish), Examples A and R1; conditions: for pest or weed control at 100 ppm / pest or weed control at 500 ppm: Alternaria brassicae, 144 h
[2] = test system: Blumeria graminis fsp. hordei; experiment: In vivo preventive Blumeria test (barley), Example K; conditions: 168 h, 500 ppm of active ingredient, preventive spray, evaluated 7 days after inoculation, read-out: efficacy
Excerpt: After the spray coating has been dried, the plants are dusted with spores of Blumeria graminis fsp. hordei.

[3] = Example R1, rate of application 100 ppm, read-out: Efficacy in %
[4] = Example R1, rate of application 500 ppm, read-out: Efficacy in %

SMILES | pest or weed control at 500 ppm (Pyrenophora teres) | chromatographic logP [1] | pest or weed control at 500 ppm (Sphaerotheca fuliginea) | pest or weed control at 500 ppm (Uromyces appendiculatus) | pest or weed control at 500 ppm (Botrytis cinerea) | pest or weed control at 500 ppm (Puccinia recondita) | pest or weed control at 500 ppm (Septoria tritici) | pest or weed control at 100 ppm (Alternaria brassicae; [3]) | pest or weed control at 500 ppm (Alternaria brassicae; [4]) | pest or weed control at 500 ppm [2] | pest or weed control at 500 ppm (Alternaria brassicae; 500 ppm of active ingredient, preventive spray, evaluated 6 days after inoculation, read-out: efficacy) | Efficacy in % (Alternaria brassicae; Example R1, rate of application 100 ppm) | Efficacy in % (Alternaria brassicae; Example R1, rate of application 500 ppm)
N#Cc1cncn1CC(O)(Cc1ccc(F)cc1F)CC1CC1 (stereo not shown) [Example I-130] | 70 to 79% | 2.69 | 90 to 100% | 90 to 100% | 90 to 100% | 90 to 100% | 90 to 100% |  |  |  |  |  | 
Cc1cn(CC(O)(Cc2ccccc2Cl)C2(Cl)CC2)cn1 (stereo not shown) [drawing 61, reference compound] |  |  |  |  |  |  |  | 0% | 0% |  |  |  | 
N#Cc1cncn1CC(O)(Cc1cccc(Br)c1)C1(Cl)CC1 (stereo not shown) [Example I-45] | 80 to 89% |  | 90 to 100% | 90 to 100% | 80 to 89% | 90 to 100% | 90 to 100% |  |  |  |  |  | 
CC(C)C(O)(Cc1ccc(Cl)cc1F)Cn1cncc1C#N (stereo not shown) [Example I-118] | 70 to 79% | 2.91 | 90 to 100% | 90 to 100% | 90 to 100% | 90 to 100% | 70 to 79% |  |  |  |  |  | 
Cc1ccccc1CC(O)(Cn1cncc1Cl)C1(Cl)CC1 (stereo not shown) [Example I-71] | 90 to 100% | 2.33 | 90 to 100% | 90 to 100% | 90 to 100% | 90 to 100% | 90 to 100% |  |  |  |  |  | 
Cc1ccc(CC(O)(Cn2cncc2Cl)C2(Cl)CC2)c(F)c1 (stereo not shown) [Example I-108] | 90 to 100% | 2.34 | 90 to 100% |  | 90 to 100% | 90 to 100% | 90 to 100% |  |  |  |  |  | 
N#Cc1cncn1CC(O)(Cc1ccccc1F)C1CC1 (stereo not shown) [Example I-136] |  |  | 90 to 100% | 90 to 100% |  | 90 to 100% | 90 to 100% |  |  | 90 to 100% |  |  | 
OC(Cc1ccccc1F)(Cn1cnc(Cl)c1)C1(Cl)CC1 (stereo not shown) [drawing 63, reference compound] |  |  |  |  |  |  |  | 0% | 0% |  |  |  | 
CC(C)C(O)(Cc1ccccc1Cl)Cn1cncc1C#N (stereo not shown) [Example I-82] | 80 to 89% | 2.67 | 90 to 100% | 90 to 100% | 90 to 100% | 90 to 100% | 90 to 100% |  |  |  |  |  | 
OC(Cc1ccccc1Cl)(Cn1cncc1-c1cccs1)C1(Cl)CC1 (stereo not shown) [Example I-20] |  |  | 90 to 100% | 90 to 100% |  | 80 to 89% | 80 to 89% |  |  |  | 80 to 89% |  | 
OC(Cc1ccc(F)c(F)c1)(Cn1cncc1Cl)C1(Cl)CC1 (stereo not shown) [Example I-110] | 90 to 100% | 2.23 | 90 to 100% | 90 to 100% | 90 to 100% | 80 to 89% | 80 to 89% |  |  |  |  |  | 
CC1(C(O)(Cc2ccc(F)cc2F)Cn2cncc2C#N)CC1 (stereo not shown) [Example I-124] | 90 to 100% | 2.65 | 90 to 100% | 90 to 100% | 90 to 100% | 90 to 100% | 90 to 100% |  |  |  |  |  | 
CC(C)C(O)(Cc1ccccc1F)Cn1cncc1C#N (stereo not shown) [Example I-139] | 70 to 79% | 2.4 | 90 to 100% | 90 to 100% | 90 to 100% | 90 to 100% | 90 to 100% |  |  |  |  |  | 
OC(Cc1ccccc1Cl)(Cn1cncc1I)C1(Cl)CC1 (stereo not shown) [Example I-14] | 80 to 89% | 2.14 | 90 to 100% | 90 to 100% | 90 to 100% | 80 to 89% | 90 to 100% |  |  |  |  |  | 
N#Cc1cncn1CC(O)(Cc1ccnc(Cl)c1)C1(Cl)CC1 (stereo not shown) [Example I-62] | 90 to 100% | 2.04 | 90 to 100% | 90 to 100% |  | 90 to 100% | 90 to 100% |  |  | 90 to 100% |  |  | 
OC(Cc1ccc(Cl)cc1)(Cn1cncc1Cl)C1(Cl)CC1 (stereo not shown) [Example I-77] | 80 to 89% |  | 90 to 100% | 90 to 100% | 90 to 100% | 80 to 89% | 90 to 100% |  |  |  |  |  | 
CC1(C(O)(Cc2ccccc2F)Cn2cncc2C#N)CC1 (stereo not shown) [Example I-131] | 80 to 89% | 2.68 | 90 to 100% | 90 to 100% | 70 to 79% | 90 to 100% | 90 to 100% |  |  |  |  |  | 
N#Cc1cn(CC(O)(Cc2ccccc2F)C2(Cl)CC2)cn1 (stereo not shown) [drawing 68, reference compound] |  |  |  |  |  |  |  | 0% | 0% |  |  |  | 
Cc1cccc(CC(O)(Cn2cncc2C#N)C2(Cl)CC2)c1F (stereo not shown) [Example I-142] | 80 to 89% | 2.99 | 90 to 100% | 90 to 100% | 80 to 89% | 80 to 89% | 70 to 79% |  |  |  |  |  | 
OC(Cc1ccccc1Cl)(Cn1cnc(Br)c1)C1(Cl)CC1 (stereo not shown) [drawing 59, reference compound] |  |  |  |  |  |  |  | 0% | 40% |  |  |  | 
OC(Cc1ccccc1F)(Cn1ccnc1Cl)C1(Cl)CC1 (stereo not shown) [drawing 64, reference compound] |  |  |  |  |  |  |  | 0% | 0% |  |  |  | 
OC(Cc1ccnc(Cl)c1)(Cn1cncc1Cl)C1(Cl)CC1 (stereo not shown) [Example I-75] | 80 to 89% | 1.62 | 90 to 100% | 90 to 100% | 80 to 89% | 70 to 79% | 90 to 100% |  |  | 90 to 100% |  |  | 
CC1(C(O)(Cc2ccccc2Cl)Cn2cncc2C#N)CC1 (stereo not shown) [Example I-79] | 90 to 100% | 2.87 | 90 to 100% | 90 to 100% | 90 to 100% | 90 to 100% | 90 to 100% |  |  |  |  |  | 
OC(Cc1ccc(Cl)cc1F)(Cn1ccc(Cl)c1)C1(Cl)CC1 (racemic) [reference compound] |  |  |  |  |  |  |  |  |  |  |  | 0% | 0%
N#Cc1cncn1CC(O)(Cc1ccccc1Cl)C1CC1 (stereo not shown) [Example I-80] | 80 to 89% | 2.57 | 90 to 100% | 90 to 100% |  | 80 to 89% | 90 to 100% |  |  | 90 to 100% |  |  | 
